ChEMBL document CHEMBL5441142, “Probing the Merck KGaA Open Global health library for novel starting points for anti-schistosomal drug discovery” (2024)
Active and inactive are the calls of the source.

How the values were obtained:
[1] = system: Schistosoma mansoni; test: In vitro activity screen on S. mansoni schistosomula at 10 uM. Compound-induced effects were assessed by quantifying larva motility and phenotype using Roboworm.; type: functional, organism-based; set-up: test concentration 10 uM, temperature 37 degree C, time incubation 72 h; conditions: Puerto Rican
[2] = system: Schistosoma mansoni; test: Ex vivo activity screen on S. mansoni adult worms at 20 uM. Parasite motility after compound treatment was assessed at 72 h using the WHO-TDR scoring metric.; type: functional, organism-based; set-up: test concentration 20 uM, temperature 37 degree C; conditions: Puerto Rican

SMILES | EC50 [1] | Ex-vivo screening [2] | In vitro activity [1]
COc1ccc(CNc2nc3c(ccc4[nH]c(=O)c(C#N)cc43)s2)cc1 | 4.35 µM (active) | Active | –
COc1cc(Nc2cn(Cc3ccc(Oc4ccccc4)cc3)nn2)ccc1-n1cnc(C)c1 | – | inactive | Active
COc1cc(OC)c(CCNC(=O)c2cn3cc(-c4cc(OCC#N)ccc4OC)nc3s2)c(OC)c1 | – | inactive | Active
COc1cc(OC)c(CCNC(=O)c2cn3cc(-c4cc(OCCO)ccc4OC)nc3s2)c(OC)c1 | – | inactive | Active
COc1ccc(OCCCO)cc1-c1cn2cc(C(=O)NCCc3c(OC)cccc3OC)sc2n1 | – | inactive | Active
O=C(C1CCCCC1)N1CC(=O)N2CCc3ccccc3[C@@H]2C1 | – | inactive | Active
CCOc1cc(CCNC(=O)C[C@H]2S[C@@H](c3ccc(C#Cc4ccccc4)cc3)N(c3cccc(C(N)=O)c3)C2=O)ccc1OC | – | inactive | Active
COCc1cc(-c2nc(-c3ccc(CNCC(=O)O)c(F)c3)no2)ccc1-c1ccccc1F | – | inactive | Active
Clc1cccc(OCc2ncc3nccnc3n2)c1Cl | – | inactive | Active
COCCCOc1ccc(OC)c(-c2cn3cc(C(=O)NCCc4c(OC)cc(OC)cc4OC)ccc3n2)c1 | – | inactive | Active
COc1ccc(OC)c(CCNC(=O)c2ccc3nc(-c4cc(OCCCO)ccc4OC)cn3c2)c1 | – | inactive | Active
COc1cccc(CNc2nnc(-c3c[nH]c4ncccc34)o2)c1 | – | inactive | Active
COc1ccc(CCNC(=O)c2cn3cc(-c4cc(OCCCO)ccc4OC)nc3s2)c(OCCCO)c1 | – | – | inactive
COCCCN1CCC2(CC1)OC(=O)C(C)=C2C(=O)N1CCc2ccc(C(F)(F)F)cc2C1 | – | – | inactive
Cc1cc(C2=CCCC2)c(S(C)(=O)=O)cc1C(=O)N=C(N)N | – | – | inactive
CC1=C(C(=O)N2Cc3cc(C(F)(F)F)ccc3C(C)(C)C2)C2(CCN(C3CCOCC3)CC2)OC1=O | – | – | inactive
CCCc1nn(C)c2c(=O)[nH]c(-c3cc(S(=O)(=O)n4ccc(O)cc4=O)ccc3OCC)nc12 | – | – | inactive
COCc1cc(-c2nc(-c3ccc(CN(C)CCC(=O)O)c(F)c3)no2)ccc1-c1ccccc1C | – | – | inactive
Cc1cc(OC(C)(C)C)c(S(C)(=O)=O)cc1C(=O)N=C(N)N | – | – | inactive
COc1ccc(C2=NN(C(=O)c3ccc(NC(=O)c4cccnc4)cc3)CCC2)cc1OC1CCCC1 | – | – | inactive
CCNC1=N[C@@H]2[C@@H](O)[C@H](O)[C@@H](Cn3cc(COc4cccc(Br)c4)nn3)O[C@@H]2S1 | – | – | inactive
CCOc1cc(C2=NN(C(=O)c3ccc(NC(=O)c4cccnc4)cc3)CCC2)ccc1OC | – | – | inactive
CCS(=O)(=O)c1cc(C)c(C(=O)N=C(N)N)cc1S(C)(=O)=O | – | – | inactive
Cc1cc(C2CCCC2)c(S(C)(=O)=O)cc1C(=O)N=C(N)N | – | – | inactive
CS(=O)(=O)c1cccc(-c2ccc(Cn3cc(C(=O)O)c(=O)c4cccc(F)c43)cn2)c1 | – | – | inactive
CCNC1=N[C@@H]2[C@@H](O)[C@H](O)[C@@H](Cn3cc(COc4ccc(Cl)cc4)nn3)O[C@@H]2S1 | – | – | inactive
CCCc1nn(C)c2c(=O)[nH]c(-c3cc(S(=O)(=O)Oc4ccccn4)ccc3OCC)nc12 | – | – | inactive
CC(c1ccc2c(c1)CCC2)N1CCN(c2ccccc2)CC1 (configuration not stated) | – | – | inactive
CCCCC[C@H](O)/C=C/[C@H]1CCC(=O)N1CCc1ccc(C(=O)O)cc1 | – | – | inactive
CC1=C(C(=O)N2CCc3ncc(C(F)(F)F)cc3C2)C2(CCN(C3CCC(O)CC3)CC2)OC1=O (configuration not stated) | – | – | inactive
